Legend:
Assay type in all cases: physicochemical
[1] = Solubility in supercritical carbon dioxide; conditions: 5 mg scale
Description: The partial separation of (3R,3′R,6′R)-lutein and 3′-epilutein was also found to be quite feasible by the use of supercritical fluid extraction with carbon dioxide.
5 mg of an epimeric mixture of (3R,3′R,6′R)-lutein and 3-epilutein prepared from 97% pure (3R,3′R,6′R)-lutein (Table 2) was mixed with 0.70 g of hydromatrix (mixture of silica gel and diatomaceous earth). This was extracted with carbon dioxide in a Model Prep-Master supercritical fluid extraction apparatus (Suprex-ISCO, Inc., Lincoln, Nebr.). The conditions were as follows: flow=2 ml/min, restrictor temperature=50° C., desorb temperature=10° C., oven temperature=35° C. A two step gradient was employed for extraction of 3′-epilutein. Step one used 100 g of carbon dioxide at 300 atmosphere and step two 50 g of carbon dioxide at 375 atmosphere. Total of 2.4 mg of carotenoids was extracted with this 150 g of carbon dioxide. The extracted carotenoids were shown by HPLC to consist of 3′-epilutein (83%), (3R,3′R,6′R)-lutein (13%), anhydrolutein (2%), and Z-luteins (2%). Approximately 2.5 mg of carotenoids remained in the hydromatrix; these were: (3R,3′R,6′R)-lutein (77%), 3′-epilutein (13%), and (3R,3′R)-zeaxanthin (10%).

[2] = Solubility in non-polar hydrocarbon / organic solvents; conditions: pentane, hexane, heptane, cyclohexane, petroleum ether (b.p.=35-60° C.)
Description: Such solvents include pentane, hexane, heptane, cyclohexane, petroleum ether (b.p.=35-60° C.) and the like. Based on this difference in solubility behavior, a number of processes were developed which allowed the partial separation of 3′-epilutein from (3R,3′R,6′R)-lutein. These methods are a) solvent extraction, b) preferential crystallization, c) Soxhlet extraction, d) enzymatic acylation, and e) supercritical extraction with carbon dioxide. When each of these methods is applied separately to a 1:1 mixture of (3R,3′R,6′R)-lutein and 3′-epilutein, the partial separation of these carotenoids was accomplished and 3′-epilutein was obtained in 77-95% enrichment. […] The enrichment of 3′-epilutein in poorly separated mixtures may be further increased by low-temperature crystallization of (3R,3′R,6′R)-lutein from a C1-4 alcohol. Alcohols suitable for this crystallization include ethanol, methanol, propanol, 2-propanol and the like. The temperature at which the crystallization may be performed is between about −80° C. and about −40° C. […]
While (3R,3′R,6′R)-lutein and (3R,3′R)-zeaxanthin are not acylated with lipase AK or lipase PS, 3′-epilutein undergoes acylation at C-3′ to give 3′-epilutein-3′-acetate. As mentioned above, due to the difference in solubility between (3R,3′R,6′R)-lutein and 3′-epilutein, the enzymatic acylation can be readily carried out in the above-mentioned organic solvents. […]

Solubility in hexane = conditions: printed as solvent volume per mass
Description: As pointed out above, the solubility of 3′-epilutein in solvents such as pentane, hexane, heptane, and petroleum ether (b.p.=35-60° C.) is much higher than that of (3R,3′R,6′R)-lutein. However; large scale separation with these non-polar hydrocarbons alone would require large volumes of solvents and is not practical. For example, the low solubility of 3′-epilutein in hexane (13 ml/mg) is indicative of the large volumes of this solvent needed for the partial separation of 3′-epilutein from (3R,3′R,6′R)-lutein by virtue of their differential solubilities. Therefore, a co-solvent may be employed to increase the solubility of 3′-epilutein and at the same time reduce the volume of the hydrocarbon solvent. […] Preferred ethers include diethyl ether, TBME, diisopropyl ether and the like. Preferred non-polar hydrocarbon solvents include pentane, hexane, heptane, petroleum ether and the like. The preferred petroleum ether is that fraction which boils at 35-60° C. The ratio of non-polar hydrocarbon solvent (or petroleum ether) to ether may range from 4:1, to about 2:1, more preferably, about 3:1. One of ordinary skill in the art may determine other ratios with no more than routine experimentation.

Row | SMILES | solubility in supercritical carbon dioxide (in words) [1] | solubility in non-polar solvents (in words) [2] | solubility in hexane (Solubility in hexane)
1 | CC1=C[C@@H](O)CC(C)(C)[C@H]1/C=C/C(C)=C/C=C/C(C)=C/C=C/C=C(C)/C=C/C=C(C)/C=C/C1=C(C)C[C@@H](O)CC1(C)C [3′-epilutein, (3R,3′S,6′R)-lutein] | by far greater than that of (3R,3′R,6′R)-lutein and (3R,3′R)-zeaxanthin | slightly more soluble than (3R,3′R,6′R)-lutein | 13 mL/mg
2 | CC(=O)OC1C=C(C)C(C=CC(C)=CC=CC(C)=CC=CC=C(C)C=CC=C(C)C=CC2=C(C)CC(O)CC2(C)C)C(C)(C)C1 (stereo not shown) [3′-epilutein-3′-acetate] |  | highly soluble | 

— patent publication US6818798B1, “Process for making a (3R,3′R)-zeaxanthin precursor” (University of Maryland, College Park, priority 2000, dated 2004)
